Results: patent publication US8658565B2 (priority 2010, dated 2014)
Like-named read-outs stand apart in the source and are kept apart here.

How the values were obtained:
Format in all cases: in vivo
Phytophthora infestans [1] = conditions: tomatoes; (I-1) alone 50 ppm a.i.; evaluated 3 days after inoculation
Botrytis cinerea = assay: Botrytis test (beans)/preventive, Example I: biological control agent sprayed first, (I-1) 4 h later; conditions: (I-1) alone 12.5 ppm a.i., lesion size evaluated 2 days after inoculation
Procedure: (§1) To produce a suitable preparation of active compound, 1 part by weight of the dithiino-tetracarboximide is mixed with 24.5 parts by weight of acetone, 24.5 parts by weight of dimethylacetamide and 1 part by weight of emulsifier alkylaryl polyglycol ether. The concentrate is diluted with water to the desired concentration.
BioNem WP®, a wettable powder formulation containing the bacteria Bacillus firmus, is mixed and diluted with water to the desired concentration.
Young plants are sprayed with the aqueous preparation of the biological control agents, e.g. BioNem WP®, at the stated rate of application. 4 hours later and after the spray coating has dried on, the plants are sprayed with the preparation of (I-1) 2,6-dimethyl-1H,5H-[1,4]dithiino[2,3-c:5,6-c′]dipyrrole-1,3,5,7(2H,6H)-tetrone at the stated rate of application. The next day the plants are inoculated by placing 2 small pieces of agar covered with growth of Botrytis cinerea on each leaf. The inoculated plants are placed in a darkened chamber at 20° C. and a relative atmospheric humidity of 100%. 2 days after the inoculation, the size of the lesions on the leaves is evaluated. 0% means an efficacy which corresponds to that of the untreated control, while an efficacy of 100% means that no disease is observed.

Alternaria solani [2] = assay: Alternaria test (tomatoes)/preventive, Example D: (I-1) sprayed first, biological control agent 4 h later; conditions: (I-1) alone 25 ppm a.i., evaluated 3 days after inoculation
Procedure: as §1
Shemer, a water dispersible granule formulation containing the yeast Metschnikowia fructicola, is mixed and diluted with water to the desired concentration.
Young plants are sprayed with the preparation of (I-1) 2,6-dimethyl-1H,5H-[1,4]diithiino[2,3-c:5,6-c′]dipyrrole-1,3,5,7(2H,6H)-tetrone at the stated rate of application. 4 hours later and after the spray coating has dried on, the plants are sprayed with the aqueous preparation of the biological control agents, e.g. Shemer, at the stated rate of application. The next day the plants are inoculated with an aqueous spore suspension of Alternaria solani. The plants are then placed in an incubation cabinet at approximately 20° C. and a relative atmospheric humidity of 100%. The test is evaluated 3 days after the inoculation. 0% means an efficacy which corresponds to that of the untreated control while an efficacy of 100% means that no disease is observed.

Phytophthora infestans [3] = conditions: tomatoes, evaluated 3 days after inoculation
Venturia inaequalis [4] = assay: Venturia test (apples)/preventive, Example C: (I-1) sprayed first, biological control agent 4 h later; conditions: (I-1) alone 25 ppm a.i., evaluated 10 days after inoculation
Procedure: as §1
(§2) Serenade® WPO, a wettable powder formulation containing the bacteria Bacillus subtilis (variety QST 713), is mixed and diluted with water to the desired concentration.
Young plants are sprayed with the preparation of (I-1) 2,6-dimethyl-1H,5H-[1,4]dithiino[…]dipyrrole-1,3,5,7(2H,6H)-tetrone at the stated rate of application. 4 hours later and after the spray coating has dried on, the plants are sprayed with the aqueous preparation of the biological control agents, e.g. Serenade® WPO, at the stated rate of application. The next day the plants are inoculated with an aqueous conidia suspension of the causal agent of apple scab (Venturia inaequalis) and then remain for 1 day in an incubation cabinet at approximately 20° C. and a relative atmospheric humidity of 100%. The plants are then placed in a greenhouse at approximately 21° C. and a relative atmospheric humidity of approximately 90%. The test is evaluated 10 days after the inoculation. […]

Sphaerotheca fidiginea = assay: Sphaerotheca test (cucumbers)/preventive, Example B: (I-1) sprayed first, biological control agent 4 h later; conditions: (I-1) alone 50 ppm a.i., evaluated 7 days after inoculation
Procedure: as §1, §2
Young plants are sprayed with the preparation of (I-1) 2,6-dimethyl-1H,5H-[1,4]dithiino[…]dipyrrole-1,3,5,7(2H,6H)-tetrone at the stated rate of application. 4 hours later and after the spray coating has dried on, the plants are sprayed with the aqueous preparation of the biological control agents, e.g. Serenade® WPO, at the stated rate of application. The next day the plants are inoculated with an aqueous spore suspension of Sphaerotheca fidiginea. The plants are then placed in a greenhouse at approximately 23° C. and a relative atmospheric humidity of approximately 70%. The test is evaluated 7 days after the inoculation. 0% means an efficacy which corresponds to that of the untreated control, while an efficacy of 100% means that no disease is observed.

Venturia inaequalis [5] = assay: Venturia test (apples)/preventive, Example G: biological control agent sprayed first, (I-1) 4 h later; conditions: (I-1) alone 12.5 ppm a.i., evaluated 10 days after inoculation
Procedure: as §1, §2
Young plants are sprayed with the aqueous preparation of the biological control agents, e.g. Serenade® WPO, at the stated rate of application. 4 hours later and after the spray coating has dried on, the plants are sprayed with the preparation of (I-1) 2,6-dimethyl-1H,5H-[1,4]dithiino[2,3-c:5,6-c′]dipyrrole-1,3,5,7(2H,6H)-tetrone at the stated rate of application. The next day the plants are inoculated with an aqueous conidia suspension of the causal agent of apple scab (Venturia inaequalis) and then remain for 1 day in an incubation cabinet at approximately 20° C. and a relative atmospheric humidity of 100%. The plants are then placed in a greenhouse at approximately 21° C. and a relative atmospheric humidity of approximately 90%. The test is evaluated 10 days after the inoculation. […]

Sphaerotheca fuliginea = assay: Sphaerotheca test (cucumbers)/preventive, Example F: biological control agent sprayed first, (I-1) 4 h later; conditions: (I-1) alone 50 ppm a.i., evaluated 7 days after inoculation
Procedure: as §1, §2
Young plants are sprayed with the aqueous preparation of the biological control agents, e.g. Serenade® WPO, at the stated rate of application. 4 hours later and after the spray coating has dried on, the plants are sprayed with the preparation of (I-1) 2,6-dimethyl-1H,5H-[1,4]dithiino[2,3-c:5,6-c′]dipyrrole-1,3,5,7(2H,6H)-tetrone at the stated rate of application. The next day the plants are inoculated with an aqueous spore suspension of Sphaerotheca fuliginea. The plants are then placed in a greenhouse at approximately 23° C. and a relative atmospheric humidity of approximately 70%. The test is evaluated 7 days after the inoculation. 0% means an efficacy which corresponds to that of the untreated control, while an efficacy of 100% means that no disease is observed.

Alternaria solani [6] = assay: Alternaria test (tomatoes)/preventive, Example H: biological control agent sprayed first, (I-1) 4 h later; conditions: (I-1) alone 25 ppm a.i., evaluated 3 days after inoculation
Procedure: as §1, §2
Young plants are sprayed with the aqueous preparation of the biological control agents, e.g. Serenade® WPO, at the stated rate of application. 4 hours later and after the spray coating has dried on, the plants are sprayed with the preparation of (I-1) 2,6-dimethyl-1H,5H-[1,4]dithiino[2,3-c:5,6-c′]dipyrrole-1,3,5,7(2H,6H)-tetrone at the stated rate of application. The next day the plants are inoculated with an aqueous spore suspension of Alternaria solani. The plants are then placed in an incubation cabinet at approximately 20° C. and a relative atmospheric humidity of 100%. The test is evaluated 3 days after the inoculation. 0% means an efficacy which corresponds to that of the untreated control while an efficacy of 100% means that no disease is observed.

For `Cn1c(=O)c2sc3c(=O)n(C)c(=O)c3sc2c1=O` [(I-1), 2,6-dimethyl-1H,5H-[1,4]dithiino[2,3-c:5,6-c′]dipyrrole-1,3,5,7(2H,6H)-tetrone], the “Efficacy in % found” value (Phytophthora infestans [1]) was 84%, the “Efficacy in % found” value (Botrytis cinerea) was 4% and the “Efficacy in % found” value (Alternaria solani [2]) was 35%. For the same molecule, the “Efficacy in % found” value (Phytophthora infestans [3]; (I-1) alone 12.5 ppm a.i.) was 15%, the “Efficacy in % found” value (Phytophthora infestans [3]; (I-1) alone 25 ppm a.i.) was 40% and the “Efficacy in % found” value (Venturia inaequalis [4]) was 49%. For the same molecule, the “Efficacy in % found” value (Sphaerotheca fidiginea) was 0%, the “Efficacy in % found” value (Venturia inaequalis [5]) was 48% and the “Efficacy in % found” value (Sphaerotheca fuliginea) was 0%. The “Efficacy in % found” value (Alternaria solani [6]) was 21%.
